Measured values reported in patent US7795261B2, “Substituted 1-piperidin-4-yl-4-pyrrolidin-3-yl-piperazine derivatives and their use as neurokinin antagonists” (Janssen Pharmaceutica NV, priority 2002, dated 2010).

Columns and labels:
[1] = target: NK1 (Homo sapiens, UniProt P25103); experiment: Signal transduction (ST), intracellular Ca++ (FLIPR), NK1 antagonistic activity; type: cell-based; conditions: read-out: pIC50 NK1 (converted)
Description: (§1) This test evaluates in vitro functional NK1 antagonistic activity. For the measurements of intracellular Ca^++ concentrations the cells were grown on 96-well (black wall/transparent bottom) plates from Costar for 2 days until they reached confluence. The cells were loaded with 2 μM Fluo3 in DMEM containing 0.1% BSA and 2.5 mM probenecid for 1 h at 37° C. They were washed 3× with a Krebs buffer (140 mM NaCl, 1 mM MgCl2×6H2O, 5 mM KCl, 10 mM glucose, 5 mM HEPES; 1.25 mM CaCl2; pH 7.4) containing 2.5 mM probenecid and 0.1% BSA (Ca^++-buffer). The cells were preincubated with a concentration range of antagonists for 20 min at RT and Ca^++-signals after addition of the agonists were measured in a Fluorescence Image Plate Reader (FLIPR from Molecular Devices, Crawley, England). The peak of the Ca^++-transient was considered as the relevant signal and the mean values of corresponding wells were analysed as described below.
The sigmoidal dose response curves were analysed by computerised curve-fitting, using the GraphPad Program. […] For antagonist responses the IC50-value was calculated using non-linear regression. […]

[2] = target: T1, NK3 (Homo sapiens, UniProt P29371); experiment: Signal transduction (ST), intracellular Ca++ (FLIPR), NK3; type: cell-based; conditions: read-out: pIC50 NK3 (converted)
T1 sequence (P29371 1-465): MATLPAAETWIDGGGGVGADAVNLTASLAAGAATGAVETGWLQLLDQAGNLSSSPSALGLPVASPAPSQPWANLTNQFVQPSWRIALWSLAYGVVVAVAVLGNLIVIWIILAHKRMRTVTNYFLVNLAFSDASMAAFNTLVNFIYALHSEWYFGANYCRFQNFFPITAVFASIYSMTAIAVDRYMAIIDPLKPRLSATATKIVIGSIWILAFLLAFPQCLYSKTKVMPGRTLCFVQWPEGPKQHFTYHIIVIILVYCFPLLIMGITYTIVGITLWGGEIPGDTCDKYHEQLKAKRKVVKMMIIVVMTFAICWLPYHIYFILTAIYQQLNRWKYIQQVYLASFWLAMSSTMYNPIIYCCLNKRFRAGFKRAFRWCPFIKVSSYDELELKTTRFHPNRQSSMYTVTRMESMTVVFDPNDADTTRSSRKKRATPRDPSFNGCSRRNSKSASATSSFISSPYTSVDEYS
Description: [The procedure below names another target; the source lists this target under the same test.] as §1
The sigmoidal dose response curves were analysed by computerised curve-fitting, using the GraphPad Program. […] For antagonist responses the IC50-value was calculated using non-linear regression.
The last columns indicates—without being limited therefore—for which the compounds might be most suitable. Of course, since for some neurokinin receptors no data was determined, it is obvious that these compounds might be attributed to another suitable use.

Chain of NK1 (P25103 whole entry): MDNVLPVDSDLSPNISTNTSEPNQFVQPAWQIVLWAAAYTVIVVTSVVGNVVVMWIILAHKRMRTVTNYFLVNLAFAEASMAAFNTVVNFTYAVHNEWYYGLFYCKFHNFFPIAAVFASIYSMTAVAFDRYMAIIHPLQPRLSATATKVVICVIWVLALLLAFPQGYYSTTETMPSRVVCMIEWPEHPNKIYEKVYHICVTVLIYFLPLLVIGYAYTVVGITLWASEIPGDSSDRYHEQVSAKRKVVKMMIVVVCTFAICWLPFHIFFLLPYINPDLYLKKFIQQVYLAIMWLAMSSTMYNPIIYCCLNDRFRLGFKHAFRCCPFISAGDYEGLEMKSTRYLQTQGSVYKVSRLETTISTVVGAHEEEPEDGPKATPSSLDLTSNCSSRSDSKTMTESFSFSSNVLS

IC50 [1] [nM] | IC50 [2] [nM] | Structure (SMILES)
20 | 1000 | O=C(c1cc(C(F)(F)F)cc(C(F)(F)F)c1)N1CCC(N2CCN(C3CCN(C(=O)C(F)(F)F)C3)CC2)CC1Cc1ccccc1 (centres unmarked) [Compound 203]
126 | 794 | O=C(c1cc(C(F)(F)F)cc(C(F)(F)F)c1)N1CC[C@@H](N2CCN(C3CCN(S(=O)(=O)c4cccs4)C3)CC2)C[C@H]1Cc1ccc(Cl)c(Cl)c1 (relative stereo) [Compound 142]
25.1 | 158 | O=C(c1cc(C(F)(F)F)cc(C(F)(F)F)c1)N1CC[C@H](N2CCN(C3CCN(S(=O)(=O)c4cccs4)C3)CC2)C[C@H]1Cc1ccc(Cl)c(Cl)c1 (relative stereo) [Compound 163]
158 | 6310 | O=C(C1CCOC1)N1CCC(N2CCN(C3CCN(C(=O)c4cc(C(F)(F)F)cc(C(F)(F)F)c4)C(Cc4ccccc4)C3)CC2)C1 (single isomer, unassigned) [Compound 139]
25.1 | 794 | CC(C(=O)N1CCC(N2CCN([C@H]3CCN(C(=O)c4cc(C(F)(F)F)cc(C(F)(F)F)c4)[C@H](Cc4ccc(F)c(F)c4)C3)CC2)C1)c1ccccc1 (single isomer, unassigned) [Compound 233]
25.1 | 200 | Cc1occc1C(=O)N1CCC(N2CCN([C@H]3CCN(C(=O)c4cc(C(F)(F)F)cc(C(F)(F)F)c4)[C@H](Cc4ccccc4)C3)CC2)C1 (some centres unmarked) [Compound 36]
126 | 6310 | O=C(c1ccoc1)N1CCC(N2CCN(C3CCN(C(=O)c4cc(C(F)(F)F)cc(C(F)(F)F)c4)C(Cc4ccccc4)C3)CC2)C1 (single isomer, unassigned) [Compound 138]
39.8 | 2000 | Cc1cc(C(=O)N2CCC(N3CCN([C@H]4CCN(C(=O)c5cc(C(F)(F)F)cc(C(F)(F)F)c5)[C@H](Cc5ccccc5)C4)CC3)C2)c(C)o1 (some centres unmarked) [Compound 37]
20 | 5010 | Cc1nccn1C(C(=O)N1CCC(N2CCN(C3CCN(C(=O)c4cc(C(F)(F)F)cc(C(F)(F)F)c4)C(Cc4ccccc4)C3)CC2)C1)c1ccccc1 (centres unmarked) [Compound 110]
15.8 | 5010 | CC(=O)N1CCCC1C(=O)N1CCC(N2CCN([C@H]3CCN(C(=O)c4cc(C(F)(F)F)cc(C(F)(F)F)c4)[C@H](Cc4ccccc4)C3)CC2)C1 (some centres unmarked) [Compound 187]
10 | 631 | N#Cc1cccc(C(=O)N2CCC(N3CCN(C4CCN(C(=O)c5cc(C(F)(F)F)cc(C(F)(F)F)c5)C(Cc5ccccc5)C4)CC3)C2)c1 (single isomer, unassigned) [Compound 192]
15.8 | 6310 | O=C(c1cc(C(F)(F)F)cc(C(F)(F)F)c1)N1CC[C@H](N2CCN(C3CCN(C(=C[N+](=O)[O-])N4CCCC4)C3)CC2)C[C@H]1Cc1ccccc1 (some centres unmarked) [Compound 377]
39.8 | 631 | COCCC(=O)N1CC[C@@H](N2CCN([C@H]3CCN(C(=O)c4cc(C(F)(F)F)cc(C(F)(F)F)c4)[C@H](Cc4ccccc4)C3)CC2)C1 [Compound 414]
7.94 | 251 | CC(C)(C)OC(=O)N1CCC[C@@H]1C(=O)N1CCC(N2CCN([C@H]3CCN(C(=O)c4cc(C(F)(F)F)cc(C(F)(F)F)c4)[C@H](Cc4ccccc4)C3)CC2)C1 (some centres unmarked) [Compound 189]
20 | 3980 | O=C(CNc1ccccc1CO)N1CCC(N2CCN(C3CCN(C(=O)c4cc(C(F)(F)F)cc(C(F)(F)F)c4)C(Cc4ccccc4)C3)CC2)C1 (centres unmarked) [Compound 207]
126 | 3160 | Cn1c(C(=O)N2CCC(N3CCN([C@H]4CCN(C(=O)c5cc(C(F)(F)F)cc(C(F)(F)F)c5)[C@H](Cc5ccccc5)C4)CC3)C2)cc2ccccc21 (some centres unmarked) [Compound 57]
20 | 5010 | O=C1CC[C@@H](C(=O)N2CCC(N3CCN([C@H]4CCN(C(=O)c5cc(C(F)(F)F)cc(C(F)(F)F)c5)[C@H](Cc5ccccc5)C4)CC3)C2)O1 (some centres unmarked) [Compound 386]
20 | 1580 | O=C([C@H]1CCCN1)N1CCC(N2CCN([C@H]3CCN(C(=O)c4cc(C(F)(F)F)cc(C(F)(F)F)c4)[C@H](Cc4ccccc4)C3)CC2)C1 (some centres unmarked) [Compound 213]
25.1 | 251 | O=C(c1cccs1)N1CCC(N2CCN([C@H]3CCN(C(=O)c4cc(C(F)(F)F)cc(C(F)(F)F)c4)[C@H](Cc4ccccc4)C3)CC2)C1 (some centres unmarked) [Compound 42]

IC50 [1] [nM] | IC50 [2] [nM] | Structure (SMILES)
15.8 | 501 | O=C(C1CCCCC1)N1CCC(N2CCN(C3CCN(C(=O)c4cc(C(F)(F)F)cc(C(F)(F)F)c4)C(Cc4ccccc4)C3)CC2)C1 (single isomer, unassigned) [Compound 402]
79.4 | 126 | N#Cc1cccc(C(=O)N2CCC(N3CCN([C@H]4CCN(C(=O)c5cc(C(F)(F)F)cc(C(F)(F)F)c5)[C@H](Cc5ccccc5)C4)CC3)C2)c1 (some centres unmarked) [Compound 12]
63.1 | 3980 | Cc1nnsc1C(=O)N1CCC(N2CCN([C@H]3CCN(C(=O)c4cc(C(F)(F)F)cc(C(F)(F)F)c4)[C@H](Cc4ccccc4)C3)CC2)C1 (some centres unmarked) [Compound 51]
20 | 501 | O=C(C1CCCC1)N1CCC(N2CCN([C@H]3CCN(C(=O)c4cc(C(F)(F)F)cc(C(F)(F)F)c4)[C@H](Cc4ccccc4)C3)CC2)C1 (some centres unmarked) [Compound 74]
79.4 | 6310 | O=C(C(c1ccccc1)n1cc(Br)cn1)N1CCC(N2CCN([C@H]3CCN(C(=O)c4cc(C(F)(F)F)cc(C(F)(F)F)c4)[C@H](Cc4ccccc4)C3)CC2)C1 (some centres unmarked) [Compound 111]
100 | 3980 | Cn1c(N2CCC(N3CCN([C@H]4CCN(C(=O)c5cc(C(F)(F)F)cc(C(F)(F)F)c5)[C@H](Cc5ccccc5)C4)CC3)C2)nc2ccccc21 (some centres unmarked) [Compound 8]
100 | 6310 | O=C(c1cc(C(F)(F)F)cc(C(F)(F)F)c1)N1CC[C@H](N2CCN(C3CCN(Cc4nc5ccccc5[nH]4)C3)CC2)C[C@H]1Cc1ccccc1 (some centres unmarked) [Compound 10]
20 | 3160 | CC(C)(C)OCCC(=O)N1CCC(N2CCN(C3CCN(C(=O)c4cc(C(F)(F)F)cc(C(F)(F)F)c4)C(Cc4ccccc4)C3)CC2)C1 (centres unmarked) [Compound 391]
10 | 1580 | CC1(C(=O)N2CCC(N3CCN([C@H]4CCN(C(=O)c5cc(C(F)(F)F)cc(C(F)(F)F)c5)[C@H](Cc5ccccc5)C4)CC3)C2)CC1 (some centres unmarked) [Compound 73]
10 | 2510 | O=C(C1CCOC1)N1CCC(N2CCN(C3CCN(C(=O)c4cc(C(F)(F)F)cc(C(F)(F)F)c4)C(Cc4ccc(F)c(F)c4)C3)CC2)C1 (single isomer, unassigned) [Compound 242]
126 | 3160 | O=C(c1ccccc1Cl)N1CCC(N2CCN([C@@H]3CCN(C(=O)c4cc(C(F)(F)F)cc(C(F)(F)F)c4)[C@H](Cc4ccc(Cl)c(Cl)c4)C3)CC2)C1 (relative stereo) [Compound 141]
31.6 | 3980 | O=C(C(NCCO)c1ccccc1)N1CCC(N2CCN([C@H]3CCN(C(=O)c4cc(C(F)(F)F)cc(C(F)(F)F)c4)[C@H](Cc4ccccc4)C3)CC2)C1 (some centres unmarked) [Compound 106]
126 | 3980 | O=C(c1ccc(CCOCc2ccccc2)s1)N1CCC(N2CCN(C3CCN(C(=O)c4cc(C(F)(F)F)cc(C(F)(F)F)c4)C(Cc4ccccc4)C3)CC2)C1 (centres unmarked) [Compound 356]
31.6 | 1580 | O=C(c1ccno1)N1CCC(N2CCN([C@H]3CCN(C(=O)c4cc(C(F)(F)F)cc(C(F)(F)F)c4)[C@H](Cc4ccccc4)C3)CC2)C1 (some centres unmarked) [Compound 68]
10 | 3980 | O=C(C1CCOC1)N1CCC(N2CCN(C3CCN(C(=O)c4cc(C(F)(F)F)cc(C(F)(F)F)c4)C(Cc4ccc(F)cc4)C3)CC2)C1 (centres unmarked) [Compound 274]
126 | 3160 | CCOCCn1c(CN2CCC(N3CCN([C@H]4CCN(C(=O)c5cc(C(F)(F)F)cc(C(F)(F)F)c5)[C@H](Cc5ccccc5)C4)CC3)C2)nc2ccccc21 (some centres unmarked) [Compound 11]
12.6 | 7940 | COC(C(=O)N1CCC(N2CCN(C3CCN(C(=O)c4cc(C(F)(F)F)cc(C(F)(F)F)c4)C(Cc4ccccc4)C3)CC2)C1)c1ccccc1 (centres unmarked) [Compound 109]
63.1 | 3980 | O=C(c1cc2ccccc2o1)N1CCC(N2CCN([C@H]3CCN(C(=O)c4cc(C(F)(F)F)cc(C(F)(F)F)c4)[C@H](Cc4ccccc4)C3)CC2)C1 (some centres unmarked) [Compound 62]
